{
  "source": "patent US8168628B2",
  "about": "“Conjugated psychotropic drugs and uses thereof” (Ramot at Tel-Aviv University Ltd., priority 2001, dated 2012)",
  "key": {"HL 60": {"system": "HL 60", "experiment": "Proliferation test, HL 60 cells", "assay_type": "cell-based", "conditions": "Homo sapiens, linear regression of survival percentage", "experimental": "(§1) Cell lines: Human prostate carcinoma (PC-3), human colon carcinoma (HT-29), murine melanoma (B-16) and its drug resistant subclone (B-16 MDR), mouse fibroblasts (3T3), myeloid leukemia (HL 60) and its drug resistant subclone (HL 60 MX2), endometrium cell line (MES SA) and its drug resistant subclone (MES DX5), jurkat T lymphoma and monocyte leukemia (U-937), were used in this study.\n(§2) Proliferation of cancer and normal cells: Proliferation was measured by neutral red assay or by a fluorometric assay quantitating DNA content. In the neutral red assay, the neutral red is absorbed by lysosomes, thus causing coloring of living cells. Quantitative analysis is performed by colorimetric assay (ELISA reader at 550 nm). In the fluorometric assay, alamar blue is used as a redox indicator. Alamar blue fluorescence was measured at an excitation wavelength of 544 nm and an emission wavelength of […] (FLUOstar BMG Lab Technologies, Offenburg, Germany).\n(§3) The cells were sub-cultured and the tested compounds were added thereto in increasing concentrations. The IC50 values were determined by linear regression of the survival percentage of the cells."}, "rat myocytes": {"system": "rat myocytes", "experimental": "Toxicity: In vitro toxicity was determined by measuring the effect of the tested compounds (either known neuroleptics or the chemical conjugates of the invention) on primary cultures of neurons and whole brain neuron and glia cells obtained from the brains of neonatal mice. In vitro toxicity of perphenazine and its chemical conjugate AN 168 was also determined with rat myocytes. Acute toxicity in vivo as determined by the LD50 was evaluated on 2 months old ICR mice following the administration of a single intraperitoneal bolus-dose of drug."}, "C6 rat glioma cells": {"system": "C6 rat glioma cells", "experiment": "Chemosensitization in C6 rat glioma cells", "assay_type": "cell-based", "experimental": "Chemosensitization: The chemosensitizing effect of perphenazine and its chemical conjugate AN 168 was measured in vitro. Various concentrations of perphenazine or AN 168 were co-administered together with a chemotherapeutic agent to either C6 rat glioma cells or to Jurkat T lymphoma cells. Cells viability and/or DNA fragmentation following treatment with either the chemotherapeutic agent, perphenazine, AN 168, a combination of the chemotherapeutic agent and perphenazine or a combination of a chemotherapeutic agent with AN 168 were measured as described hereinabove."}, "mice": {"system": "mice", "experiment": "Catalepsy in mice (bar between two cages)", "assay_type": "in vivo, mouse", "experimental": "Young adult male and female mice were purchased from Harlan, Israel. The animals were housed for 4-7 days under controlled conditions prior to experimentation. Experiments were conducted in a double blind procedure. In each experiment various treatment groups (about 10 animals each) were tested.\nCatalepsy in mice: The appearance of stereotypic cataleptic behavior in mice following the neuroleptic treatment was measured in two different sets of experiments.\nThe catalepsy was determined using a system of two cages and a bar therebetween. The mouse was hung in the middle of the bar, and the percentage of animals reaching the target within 2 minutes was monitored 1 hour, 2 hours and 3 hours following the treatment.\nThe catalepsy was determined using the system described hereinabove. The mouse was hung in the middle of the bar, and the time it took the animal to reach the target was measured."}, "prolactin": {"system": "prolactin", "experiment": "Prolactin blood level in rats (enzyme immunometric assay)", "assay_type": "in vivo, rat", "description": "Prolactin secretion: Typical neuroleptics induce hyperprolactinemia, which is frequently associated with gallactorehea and impaired gonadal and sexual function. The measurement of the circulatory plasma prolactin level was therefore used as a sensitive biochemical marker for the psychotropic activity of the known neuroleptics and the chemical conjugates of the present invention, following intraperitoneal or oral administration thereof. Thus, blood was collected from the punctured eye orbital of rats under ether anesthesia and the assay was performed using Millennia, rat prolactin enzyme immunometric assay-kit (DPC, USA)."}, "MES SA DX5 (MDR)": {"system": "MES SA DX5 (MDR)", "experiment": "Proliferation test, MES SA DX5 (MDR) cells", "assay_type": "cell-based", "conditions": "Homo sapiens, linear regression of survival percentage", "experimental": "as §1, §2, §3"}, "rats": {"system": "rats", "conditions": "rat, in vivo", "method": "Animals: Young adult male rats (150-230 grams) were purchased from Harlan (Israel). Animals were divided 2-5/cage and housed in controlled conditions in the animal room for a week prior to the experiments. The experiments were conducted with naive animals, in a double blind procedure. In each experiment various treatment groups (about 5-10 animals each) were tested.\nCatalepsy in rats: The manifestation of the extrapyramidal adverse effects induced by typical neuroleptics was evaluated by the appearance of stereotypic cataleptic behavior in rats following the neuroleptic treatment. Catalepsy was determined by two methods: (i) by measuring the time it took an animal hanging on a cage wall to move its hind legs and reach a flat surface (the “wall” test); and (ii) rats were placed on a flat surface with their anterior limbs leaning on a flat bar (5.5 cm height) resembling a piano playing position. Catalepsy was determined by the time it took an animal to descend and reach the flat surface (the “piano” test). The maximum time of follow up was 2 minutes and these measurements were performed hourly and individually for each animal. These tests provide an assessment of central dopamine (DA) blocking activity and are acceptable criteria for extrapyramidal symptoms induced by anti-psychotic drugs [10].\nA control animals group was treated with the vehicle (lactic acid) only."}},
  "note": "Structures can show the parent of a compound that is named as a salt. Where two headings read alike, the source gives them in different places.",
  "data": [
    {"smiles": "NCCCC(=O)OCCN1CCN(CCCN2c3ccccc3Sc3ccc(Cl)cc32)CC1", "note": "[AN-168, Perphenazine 4-aminobutyrate Trihydrochloride]", "values": [
      {"measurement": "IC50", "setting": "HL 60", "result": 15.1, "unit": "µM"},
      {"measurement": "decrease in cells viability", "setting": "rat myocytes", "result": "did not cause any decrease in cells viability at all concentrations"},
      {"measurement": "chemosensitizing effect, co-administration with Vincistine", "setting": "C6 rat glioma cells; 24 hours, Vincistine 30 μM, conjugate even at 5 μM (FIG. 16)", "result": "substantially enhance the cytotoxic effect thereof"},
      {"measurement": "cells viability, combined treatment of Cisplatin and AN 168", "setting": "C6 rat glioma cells; Cisplatin 5-50 μM plus 10 and 15 μM AN 168, neutral red (FIG. 17)", "result": "rendered the cells susceptible to the chemotherapeutic drug"},
      {"measurement": "catalepsy: percentage of animals reaching the target within 2 minutes", "setting": "mice; adult male mice, 1.5 mg/kg perphenazine or equimolar dose (FIG. 7a)", "result": "substantially lower disability"},
      {"measurement": "catalepsy: time it took the animals to reach the target", "setting": "mice; young female mice, 2.5 mg/kg perphenazine or equimolar dose, 2 and 3 hours after treatment (FIG. 7b)", "result": "much faster than the animals treated with perphenazine alone"},
      {"measurement": "time at which prolactin blood level peaked", "setting": "prolactin; i.p., measured at 0, 60 and 120 min after treatment", "result": 60, "unit": "min"},
      {"measurement": "prolactin blood level compared with perphenazine", "setting": "prolactin; oral, higher dose, 0, 90, 180 min (FIG. 12)", "result": "much higher as compared with animals treated with perphenazine"},
      {"measurement": "IC50", "setting": "MES SA DX5 (MDR)", "result": 17.2, "unit": "µM"},
      {"measurement": "time course of catalepsy", "setting": "rats; male, ip", "result": "no catalepsy through the entire 7 hours period"},
      {"measurement": "time course of catalepsy, conjugate versus mixture", "setting": "rats; male, ip, 120 min", "result": "abolished after 120 minutes"},
      {"measurement": "average of total catalepsy as percentage of the perphenazine-induced catalepsy", "setting": "rats", "result": "reduced the induced catalepsy to almost a zero value"},
      {"measurement": "total catalepsy, conjugate versus mixture", "setting": "rats; ip", "result": "very low catalepsy"},
      {"measurement": "induced catalepsy, SAR studies", "setting": "rats; ip, 5 mg/kg", "result": "almost maximal reduction of induced catalepsy"},
      {"measurement": "total catalepsy", "setting": "rats; ip, 5 mg/kg", "result": "did not induce catalepsy at all"},
      {"measurement": "total catalepsy", "setting": "rats; po", "result": "cataleptic symptoms were almost abolished"}
    ]}
  ]
}
